Legend:
A. baumannii BAA-125 = test: MIC in LB Broth; format: cell-based; conditions: Acinetobacter baumannii, BAA125, 16 hours at 37° C. in LB Broth, OD600
Procedure: (§1) The minimum inhibitory concentration is defined as the lowest concentration of antibiotic at which no visible growth was detected after 16 hours at 37° C. Overnight cultures were diluted 1:150 in LB Broth and added to a 96-well plate. Antibiotics were serially diluted 1:2 and added to columns of the 96-well plate and grown at 37° C. with continuous shaking. Cell growth was measured by optical density (OD600). MIC assays were performed in either BioTek Synergy HT (Winooski, VT) or Tecan InfiniteM200 Pro (Männedorf, CH) microplate readers.

E. cloacae ATCC BAA-1143 = test: MIC in LB Broth; format: cell-based; conditions: Enterobacter cloacae, ATCCBAA1143, 16 hours at 37° C. in LB Broth, OD600
Procedure: as §1

E. coli MG1655 = test: MIC in LB Broth; format: cell-based; conditions: Escherichia coli, 16 hours at 37° C. in LB Broth, OD600
Procedure: as §1

E. coli NCM-3722 = test: MIC in LB Broth; format: cell-based; conditions: Escherichia coli, NCM3722, 16 hours at 37° C. in LB Broth, OD600
Procedure: as §1

E. coli lptD4213 [1] = test: MIC in LB Broth; format: cell-based; conditions: Escherichia coli, LPTD4213, 16 h
Procedure: as §1

[2] = tested on: K. pneumoniae ATCC 438165; test: MIC in LB Broth; format: cell-based; conditions: Klebsiella pneumoniae, ATCC438165, 16 hours at 37° C. in LB Broth, OD600
Procedure: as §1

P. aeruginosa ATTC 27853 = test: MIC in LB Broth; format: cell-based; conditions: Pseudomonas aeruginosa, ATTC27853, 16 hours at 37° C. in LB Broth, OD600
Procedure: as §1

P. aeruginosa PA01 = test: MIC in LB Broth; format: cell-based; conditions: Pseudomonas aeruginosa, 16 hours at 37° C. in LB Broth, OD600
Procedure: as §1

P. aeruginosa PA14 = test: MIC in LB Broth; format: cell-based; conditions: Pseudomonas aeruginosa
Procedure: as §1

S. aureus USA300 = test: MIC in LB Broth; format: cell-based; conditions: Staphylococcus aureus, 16 hours at 37° C. in LB Broth, OD600
Procedure: as §1

S. epidermidis EGM-206 = test: MIC in LB Broth; format: cell-based; conditions: Staphylococcus epidermidis, EGM206, 16 hours at 37° C. in LB Broth, OD600
Procedure: as §1

[3] = target: T1, purified E. coli DHFR (FolA) (Escherichia coli, UniProt P0ABQ4); test: In vitro DHFR (FolA) activity, NADPH consumption at 340 nm; format: biochemical; conditions: Hill equation fit
T1 construct: purchased Genscript (Piscataway, NJ)

purified human DHFR = target: T2, purified human DHFR (Homo sapiens, UniProt P00374); test: Human DHFR in vitro assay; format: biochemical
T2 construct: purchased R&D Systems 8456-DR
Procedure: FIG. 1E is an analogous assay to FIG. 2B using purified human DHFR.
Human purified DHFR was purchased from R&D Systems (8456-DR). DHFR activity was assayed by monitoring the decrease in absorbance by NADPH at […]. DHFR enzyme (0.5 μg/mL), dihydrofolic acid (100 μM), and different concentrations of methotrexate, fluorofolin, or DMSO control was dissolved in 200 μL of Tris buffer (pH 7.5, Tris salt concentration 25 mM). Reaction was initiated by adding NADPH in a 10× stock (1 mM for final concentration 100 μM), and absorbance at 340 nm was monitored over time by Cytation 5 reader (Agilent). Activity was normalized to the DMSO control.

E. coli lptD4213 [4] = test: Membrane potential and permeability, TO-PRO-3 and DiOC2(3) flow cytometry; format: cell-based; conditions: E. coli lptD4213, 2×MIC
Procedure: FIG. 5B provides flow cytometry of E. coli lptD4213 treated with 5% DMSO, 5 μM CCCP, or 2×MIC fluorofolin 0.04 μg/mL polymixin B, and 0.4 μg/mL trimethoprim and stained with TO-PRO-3 and DiOC2(3).
The ability of fluorofolin to permeabilize P. aeruginosa PA14 was examined. Specifically, flow cytometry of P. aeruginosa stained with TO-PRO-3 was used, treated the bacteria with 2×MIC, and analyzed membrane integrity. […] It was hypothesized that this decrease in membrane targeting might also decrease toxicity due to the disruption of eukaryotic membranes.
Overnight P. aeruginosa PA14 or E. coli lptD4213 cultures were diluted 1:100 and grown to mid exponential phase at 37° C. Cultures were diluted 1:10 into PBS and treated with antibiotics for 15 minutes. P. aeruginosa PA14 was stained with TO-PRO-3 (640 nm excitation, 670/30 nm emission) to measure cell membrane integrity. […] DiOC2(3) was evaluated as a ratio of green (488 nm excitation, 525/50 nm emission) to red (488 nm excitation, 610/20 nm emission) (Novo et al., 1999). […] 100,000 events were recorded for each data file. Gates for permeabilization were determined using Polymixin B (Sigma-Aldrich P1004) and untreated controls. Gates for depolarization were determined using CCCP as a positive control. Data was analyzed using FlowJo v10 software (FlowJo LLC, Ashland, OR).

PBMC = format: cell-based; conditions: 72 h
Procedure: (§2) FIG. 5D provides IC50 of fluorofolin against in vitro mammalian cell lines relative to the IC50 of IRS-16. HLF: human lung fibroblast, HK-2: human kidney epithelial, PBMC: peripheral blood mononuclear cell, WI-38: Embryonic lung tissue.
(§3) After 24 hours, DMSO or compounds were added in 3-fold dilutions and incubated for 72 hours. For PBMC, CellTiter-Glo Reagent was added in equal volume and incubated for 30 min after which luminescence was read. For other cell types, CyQUANT Detection Reagent was added in equal volume and incubated for 1 hour after which fluorescence was read with standard green filter set (508/527 nm ex). Cell toxicity was evaluated by Pharmaron, Inc. (Beijing, […]).

WI-38 cells = test: Mammalian cell cytotoxicity (CyQUANT); format: cell-based; conditions: 72 hours
Procedure: as §2, §3

What does the source list for Nc1nc(N)c2c(ccc3c2ccn3Cc2ccnc(F)c2)n1 [fluorofolin]?
MIC (A. baumannii BAA-125): 31.2 µg/mL; MIC (E. cloacae ATCC BAA-1143): 12.5 µg/mL; MIC (E. coli MG1655): 0.625 µg/mL; MIC (E. coli NCM-3722): 0.312 µg/mL; MIC (E. coli lptD4213 [1]): 0.02 µg/mL; MIC [2]: 6.25 µg/mL; MIC (P. aeruginosa ATTC 27853): 25 µg/mL; MIC (P. aeruginosa PA01): 6.25 µg/mL; MIC (P. aeruginosa PA14; P. aeruginosa PA14, compound alone): 3.1 µg/mL; MIC (P. aeruginosa PA14; P. aeruginosa PA14, 16 hours at 37° C. in LB Broth, OD600): 3.12 µg/mL; MIC (S. aureus USA300): 0.4 µg/mL; MIC (S. epidermidis EGM-206): 0.312 µg/mL; IC50 [3]: 2.5 ± 1.1 nM; IC50 (purified human DHFR): 14 ± 4 nM; membrane depolarization or permeabilization (E. coli lptD4213 [4]): does not cause membrane depolarization or permeabilization; increase in IC50 compared to IRS-16 (PBMC): 9.6 fold; increase in IC50 compared to IRS-16 (WI-38 cells): 58.5 fold

From patent publication US20260138981A1, “DIHYDROFOLATE REDUCTASE INHIBITORS FOR ANTI-BIOTIC RESISTANT INFECTIONS” (THE TRUSTEES OF PRINCETON UNIVERSITY, priority 2022, published 2026)
